According to ChEMBL document CHEMBL4354790, “Tailored therapeutics based on 1,2,3-1H-triazoles: a mini review” (Medchemcomm, 2019):
pEC50, pIC50, pKi: −log10 of the molar value. Values belong to the molecule of their own block, whether it stands above or below them. Where a SMILES comes first, the peptide text is derived from it.

What was measured:
[1] = biological target: Signal transducer and activator of transcription 3 (Homo sapiens, UniProt P40763); experiment: Inhibition of STAT3 (unknown origin)
[2] = biological target: Protease (Human immunodeficiency virus 1, UniProt Q9YQ12); experiment: Inhibition of HIV-1 protease
[3] = biological target: Protease (Human immunodeficiency virus 1, UniProt Q9YQ12, G48V); experiment: Inhibition of HIV-1 protease G48V mutant
[4] = biological target: Protease (Human immunodeficiency virus 1, UniProt Q9YQ12, V82F); experiment: Inhibition of HIV-1 protease V82F mutant
[5] = biological target: Protease (Human immunodeficiency virus 1, UniProt Q9YQ12, V82A); experiment: Inhibition of HIV-1 protease V82A mutant
[6] = biological target: Carbonic anhydrase; experiment: Inhibition of carbonic anhydrase (unknown origin); format: protein assay, Homo sapiens
[7] = biological target: Telomerase reverse transcriptase (Homo sapiens, UniProt O14746); experiment: Inhibition of telomerase activity in human A2780 cells incubated for 10 mins by SYBR Green 1 staining based TRAP assay; format: cell-based
[8] = biological target: T1, Tyrosinase (Agaricus bisporus, UniProt O42713); experiment: Inhibition of mushroom tyrosinase using L-DOPA as substrate
T1 sequence (O42713 whole entry): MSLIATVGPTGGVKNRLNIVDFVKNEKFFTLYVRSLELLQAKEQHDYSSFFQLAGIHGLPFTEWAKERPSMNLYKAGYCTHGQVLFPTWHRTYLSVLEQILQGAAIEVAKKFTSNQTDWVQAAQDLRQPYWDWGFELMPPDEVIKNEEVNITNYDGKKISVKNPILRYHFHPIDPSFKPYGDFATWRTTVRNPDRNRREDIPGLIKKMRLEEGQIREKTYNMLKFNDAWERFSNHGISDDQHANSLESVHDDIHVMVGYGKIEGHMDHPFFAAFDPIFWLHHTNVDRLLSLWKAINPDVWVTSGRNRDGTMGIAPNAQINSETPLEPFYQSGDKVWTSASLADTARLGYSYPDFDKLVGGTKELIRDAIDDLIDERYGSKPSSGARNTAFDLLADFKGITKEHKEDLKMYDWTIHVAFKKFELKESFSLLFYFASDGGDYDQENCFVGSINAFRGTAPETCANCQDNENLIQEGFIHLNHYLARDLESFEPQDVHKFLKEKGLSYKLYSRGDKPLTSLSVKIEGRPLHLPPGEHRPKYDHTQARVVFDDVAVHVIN

[9] = biological target: D-amino-acid oxidase (Homo sapiens, UniProt P14920); experiment: Inhibition of human DAO
D-amino-acid oxidase, sequence (P14920 whole entry): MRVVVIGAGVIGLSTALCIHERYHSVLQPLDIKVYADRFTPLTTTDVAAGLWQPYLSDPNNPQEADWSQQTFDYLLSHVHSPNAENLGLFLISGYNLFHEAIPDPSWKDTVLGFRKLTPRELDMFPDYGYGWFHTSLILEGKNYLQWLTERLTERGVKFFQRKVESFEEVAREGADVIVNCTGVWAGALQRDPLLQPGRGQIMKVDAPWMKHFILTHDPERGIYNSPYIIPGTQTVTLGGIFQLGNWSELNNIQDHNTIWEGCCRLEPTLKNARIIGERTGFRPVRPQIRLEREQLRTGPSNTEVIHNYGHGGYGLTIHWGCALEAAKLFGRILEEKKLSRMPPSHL

Telomerase reverse transcriptase, sequence (O14746 whole entry): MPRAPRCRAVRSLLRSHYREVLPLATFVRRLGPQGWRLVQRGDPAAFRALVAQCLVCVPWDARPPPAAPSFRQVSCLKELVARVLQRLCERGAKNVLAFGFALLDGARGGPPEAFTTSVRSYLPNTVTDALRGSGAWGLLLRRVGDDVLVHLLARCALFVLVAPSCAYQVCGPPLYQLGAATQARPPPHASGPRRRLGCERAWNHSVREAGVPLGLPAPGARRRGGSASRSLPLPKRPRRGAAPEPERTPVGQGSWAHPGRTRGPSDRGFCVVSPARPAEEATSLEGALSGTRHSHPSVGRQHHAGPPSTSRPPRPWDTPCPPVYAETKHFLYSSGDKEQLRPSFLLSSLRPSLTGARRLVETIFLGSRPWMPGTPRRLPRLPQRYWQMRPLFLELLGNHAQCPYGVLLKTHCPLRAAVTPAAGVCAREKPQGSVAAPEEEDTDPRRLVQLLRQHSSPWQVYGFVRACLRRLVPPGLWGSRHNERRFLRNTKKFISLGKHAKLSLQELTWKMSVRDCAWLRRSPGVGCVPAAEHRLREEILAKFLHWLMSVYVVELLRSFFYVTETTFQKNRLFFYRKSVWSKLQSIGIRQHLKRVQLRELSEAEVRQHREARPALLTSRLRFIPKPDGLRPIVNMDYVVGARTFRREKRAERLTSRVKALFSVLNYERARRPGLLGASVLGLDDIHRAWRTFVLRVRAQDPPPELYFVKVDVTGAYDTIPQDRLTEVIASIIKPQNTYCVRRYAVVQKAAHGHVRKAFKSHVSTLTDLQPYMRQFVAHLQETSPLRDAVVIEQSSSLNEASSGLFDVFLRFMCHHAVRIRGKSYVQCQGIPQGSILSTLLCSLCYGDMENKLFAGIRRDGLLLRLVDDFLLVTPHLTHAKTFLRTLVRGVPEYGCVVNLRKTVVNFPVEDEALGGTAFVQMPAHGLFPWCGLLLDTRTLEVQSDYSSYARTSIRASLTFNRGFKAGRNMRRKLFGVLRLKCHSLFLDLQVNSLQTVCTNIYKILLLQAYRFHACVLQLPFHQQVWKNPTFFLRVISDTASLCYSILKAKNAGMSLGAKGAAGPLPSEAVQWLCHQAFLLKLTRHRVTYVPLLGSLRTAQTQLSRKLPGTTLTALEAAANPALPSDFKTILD
Signal transducer and activator of transcription 3, sequence (P40763 whole entry): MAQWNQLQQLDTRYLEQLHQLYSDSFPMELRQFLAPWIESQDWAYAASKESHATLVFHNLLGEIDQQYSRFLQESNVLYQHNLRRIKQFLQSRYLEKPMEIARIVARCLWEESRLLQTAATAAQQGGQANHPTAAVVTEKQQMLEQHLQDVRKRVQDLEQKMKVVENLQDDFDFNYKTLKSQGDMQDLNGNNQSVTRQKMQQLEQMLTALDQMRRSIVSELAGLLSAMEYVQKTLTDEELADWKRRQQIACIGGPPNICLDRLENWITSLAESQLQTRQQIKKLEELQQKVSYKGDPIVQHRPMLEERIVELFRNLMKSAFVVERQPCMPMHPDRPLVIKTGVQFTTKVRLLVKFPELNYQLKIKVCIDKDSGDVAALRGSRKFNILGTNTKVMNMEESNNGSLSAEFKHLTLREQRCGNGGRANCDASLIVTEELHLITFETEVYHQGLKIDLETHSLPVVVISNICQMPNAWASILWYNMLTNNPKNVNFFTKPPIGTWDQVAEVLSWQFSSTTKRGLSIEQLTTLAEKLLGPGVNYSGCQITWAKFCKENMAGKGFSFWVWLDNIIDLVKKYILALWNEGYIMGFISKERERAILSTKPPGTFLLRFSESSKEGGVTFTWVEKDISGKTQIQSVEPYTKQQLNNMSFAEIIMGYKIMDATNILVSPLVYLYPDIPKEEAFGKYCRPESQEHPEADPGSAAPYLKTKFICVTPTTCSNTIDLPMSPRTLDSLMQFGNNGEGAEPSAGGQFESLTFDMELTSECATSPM
Protease (Human immunodeficiency virus 1, UniProt Q9YQ12, V82F), sequence (Q9YQ12 entry or part of it V82F): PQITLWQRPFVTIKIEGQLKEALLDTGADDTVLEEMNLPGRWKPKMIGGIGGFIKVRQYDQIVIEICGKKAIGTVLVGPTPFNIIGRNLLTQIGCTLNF
Protease (Human immunodeficiency virus 1, UniProt Q9YQ12, V82A), sequence (Q9YQ12 entry or part of it V82A): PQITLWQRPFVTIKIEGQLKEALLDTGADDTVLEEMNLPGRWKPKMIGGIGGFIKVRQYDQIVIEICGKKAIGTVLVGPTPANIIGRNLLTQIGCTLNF
Protease (Human immunodeficiency virus 1, UniProt Q9YQ12, G48V), sequence (Q9YQ12 entry or part of it G48V): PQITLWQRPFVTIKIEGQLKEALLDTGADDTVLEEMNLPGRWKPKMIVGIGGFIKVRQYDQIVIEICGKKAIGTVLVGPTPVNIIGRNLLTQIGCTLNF
Protease (Human immunodeficiency virus 1, UniProt Q9YQ12), sequence (Q9YQ12 whole entry): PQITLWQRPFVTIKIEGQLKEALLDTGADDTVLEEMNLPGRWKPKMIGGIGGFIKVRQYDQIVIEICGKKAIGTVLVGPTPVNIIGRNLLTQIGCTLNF

- pKi [1]: 4.66
Structure (SMILES): COC(=O)[C@H](CCCCN)NC(=O)[C@@H](NC(=O)[C@@H](CCCCN)NC(=O)[C@@H](NC(=O)[C@@H](Cc1ccc(OP(=O)(O)O)cc1)NC(C)=O)C(C)C)[C@@H](C)O

Structure (SMILES): COc1ccc(S(=O)(=O)N(CC(C)C)C[C@H](O)[C@@H](Cc2ccccc2)n2cc(COC(=O)N[C@H]3c4ccccc4C[C@H]3O)nn2)cc1
- pKi [2]: 8.77
- pKi [3]: 8.77
- pKi [4]: 8.77
- pKi [5]: 8.77

- Ki [6]: 0.0002 µM
Structure (SMILES): CC(C)[C@H](C(=O)NCc1ccccc1)n1cc(-c2ccc(S(N)(=O)=O)cc2)nn1

- pEC50 [7]: 4.63
Structure (SMILES): CCN(CC)CCC(=O)Nc1ccc(-n2cc(-c3cccc(-c4cn(-c5ccc(NC(=O)CCN(CC)CC)cc5)nn4)c3)nn2)cc1

- pIC50 [8]: 2.80
Structure (SMILES): CC(C)[C@H]1C(=O)N2CCC[C@H]2c2cn(nn2)[C@@H](Cc2ccc(OCc3ccccc3)cc2)C(=O)N2CCC[C@H]2c2cn1nn2

- pIC50 [8]: 3.30
Structure (SMILES): CC(C)[C@@H]1NC(=O)[C@@H]2CCCN2C(=O)[C@H](Cc2ccc(OCc3ccccc3)cc2)n2cc(nn2)[C@@H]2CCCN2C1=O

- pEC50 [7]: 4.88
Structure (SMILES): O=C(CCN1CCCC1)Nc1ccc(-n2cc(-c3cccc(-c4cn(-c5ccc(NC(=O)CCN6CCCC6)cc5)nn4)c3)nn2)cc1

- pEC50 [7]: 4.77
Structure (SMILES): O=C(CCN1CCCCC1)Nc1ccc(-n2cc(-c3cccc(-c4cn(-c5ccc(NC(=O)CCN6CCCCC6)cc5)nn4)c3)nn2)cc1

- pKi [9]: 3.00
Structure (SMILES): COC(=O)/C(Cc1ccc(O)cc1)=N\OCCc1cn(CC(=O)NC(Cc2ccccc2)C(=O)O)nn1 (stereo not given)

- Ki [6]: 0.0002 µM
Structure (SMILES): NS(=O)(=O)c1ccc(-c2cn([C@H](Cc3ccccc3)C(=O)NCCc3ccsc3)nn2)cc1

- pKi [1]: 5.14
Structure (SMILES): CC(=O)N[C@H](Cc1ccc(OP(=O)(O)O)cc1)C(=O)N[C@@H](C(=O)N[C@@H]1CCCCn2cc(nn2)C[C@H](C(=O)N[C@@H](Cc2ccccc2)C(N)=O)NC(=O)[C@H]([C@@H](C)O)NC1=O)C(C)C

- pIC50 [8]: 2.82
Structure (SMILES): CC(C)[C@@H]1NC(=O)[C@@H]2CCCN2C(=O)[C@H](Cc2ccc(O)cc2)NC(=O)[C@@H]2CCCN2C1=O (cyclo(PVPY))
